The test system of one assay is DNA. The experiment in a line: Binding affinity to calf thymus DNA assessed as change in melting temperature at a compound to DNA molar ratio of 1:5 at pH 7 by thermal denaturation assay. The format is nucleic-acid assay. Conditions: Bos taurus.
For assay [1], the target named is T1, Type II restriction enzyme BamHI (Bacillus amyloliquefaciens) (UniProt P23940).
T1 sequence (whole entry): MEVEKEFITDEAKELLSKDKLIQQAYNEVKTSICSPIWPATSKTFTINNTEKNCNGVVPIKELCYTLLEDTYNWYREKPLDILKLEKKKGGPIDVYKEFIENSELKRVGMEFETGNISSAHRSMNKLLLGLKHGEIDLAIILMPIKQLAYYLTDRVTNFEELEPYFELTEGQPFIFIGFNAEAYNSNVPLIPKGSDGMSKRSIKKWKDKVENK
Kind of assay: Inhibition of Bacillus amyloliquefaciens BamH1-mediated pBR322 cleavage after 16 hrs by RED100-restriction endonuclease digestion assay.

As a reminder, the ΔTm is the change in melting temperature against a reference sample.

As for `COc1cc2c(cc1OCCCCN1CCN(CCCCOc3cc4c(cc3OC)C(=O)N3CC(F)(F)C[C@H]3C=N4)CC1)N=C[C@@H]1CC(F)(F)CN1C2=O`, the ΔTm in the assay on DNA was 14 °C.
In the case of `COc1cc2c(cc1OCCCCN1CCN(CCCCOc3cc4c(cc3OC)C(=O)N3CC(F)C[C@H]3C=N4)CC1)N=C[C@@H]1CC(F)CN1C2=O` (stereo not given in full), in the assay with DNA, the ΔTm was found to be 38 °C.
For `COc1cc2c(cc1OCCCCOc1cc3c(cc1OC)C(=O)N1CC(F)(F)C[C@H]1C=N3)N=C[C@@H]1CC(F)(F)CN1C2=O`, in the assay on DNA, the ΔTm amounted to 4.2 °C.
As for `COc1cc2c(cc1OCCCCCN1CCN(CCCCCOc3cc4c(cc3OC)C(=O)N3CC(F)(F)C[C@H]3C=N4)CC1)N=C[C@@H]1CC(F)(F)CN1C2=O`, in the assay on DNA, the ΔTm was 13 °C.
Consider `COc1cc2c(cc1OCCCCCN1CCN(CCCCCOc3cc4c(cc3OC)C(=O)N3CC(F)C[C@H]3C=N4)CC1)N=C[C@@H]1CC(F)CN1C2=O` (stereo not given in full), for which the thermal shift (ΔTm) with DNA worked out at 37 °C.
Consider `COc1cc2c(cc1OCCCOc1cc3c(cc1OC)C(=O)N1CCC[C@H]1C=N3)N=C[C@@H]1CCCN1C2=O`, for which the ΔTm in the assay with DNA amounted to 10.2 °C.
Consider `COc1cc2c(cc1OCCCCCOc1cc3c(cc1OC)C(=O)N1CC(F)(F)C[C@H]1C=N3)N=C[C@@H]1CC(F)(F)CN1C2=O`, for which, in the assay on DNA, the ΔTm was 18.9 °C.
With `COc1cc2c(cc1OCCCN1CCN(CCCOc3cc4c(cc3OC)C(=O)N3CC(=C(F)F)C[C@H]3C=N4)CC1)N=C[C@@H]1CC(=C(F)F)CN1C2=O`, in assay [1], the Activity entry was “Dose-dependent effect”. The shift in melting temperature (ΔTm) in the assay on DNA is 28.9 °C.
With `C=C1C[C@H]2C=Nc3cc(OCCCOc4cc5c(cc4OC)C(=O)N4CC(=C)C[C@H]4C=N5)c(OC)cc3C(=O)N2C1`, the ΔTm in the assay on DNA was 25.7 °C.
